Results taken from patent publication US12391679B2, “Benzamide-substituted bicyclic imidazo- and pyrazolo-fused -pyridine, -pyrimide, and -pyridazine compounds for treatment of inflammatory diseases” (ONCO3R Therapeutics BV, priority 2019, dated 2025).

Experiments:
SIK1 = target: T1, SIK1 (Homo sapiens, UniProt P57059); experiment: ADP-Glo kinase assay, SIK1; format: biochemical
T1 construct: purchased Carna Biosciences 02-131
In short: (§1)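 Luminescent ADP-formation read-out: enzyme–substrate mix + ATP, 120 min RT; ATP depletion 40 min RT; ADP→ATP conversion with luciferase/luciferin 30 min RT. Controls: 1% DMSO (negative), 10 μM staurosporine final (positive).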

SIK3 = target: T2, SIK3 (Homo sapiens, UniProt Q9Y2K2); experiment: ADP-Glo kinase assay, SIK3; format: biochemical
T2 construct: purchased SignalChem S12-11G-100
T2 sequence (Q9Y2K2 59-365 limits assumed): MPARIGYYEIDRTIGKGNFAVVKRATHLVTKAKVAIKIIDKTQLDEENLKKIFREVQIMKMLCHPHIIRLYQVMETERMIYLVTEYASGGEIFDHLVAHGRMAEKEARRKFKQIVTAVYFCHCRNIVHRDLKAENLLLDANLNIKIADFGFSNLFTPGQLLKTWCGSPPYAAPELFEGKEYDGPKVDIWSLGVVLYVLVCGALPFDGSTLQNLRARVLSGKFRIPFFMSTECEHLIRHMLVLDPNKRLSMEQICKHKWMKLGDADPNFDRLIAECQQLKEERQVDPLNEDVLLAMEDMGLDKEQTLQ
In short: as §1

[1] = system: LPS-induced TNFα in monocyte-derived macrophages; experiment: MdM assay: LPS-triggered TNFα (ELISA); format: cell-based, human; conditions: Macrophage; human MdM; LPS 200 ng/mL; supernatant after 20 h; inhibition of TNFα; read-out: TNFα EC50
In short: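 TNFα secretion quantified by streptavidin-HRP/luminol sandwich ELISA in supernatants collected 20 h after LPS (200 ng/mL). Macrophages derived from magnetically isolated human CD14+ monocytes were used at day 10, with compound added 1 h before LPS; final DMSO 0.2%.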

T1 sequence (P57059 whole entry): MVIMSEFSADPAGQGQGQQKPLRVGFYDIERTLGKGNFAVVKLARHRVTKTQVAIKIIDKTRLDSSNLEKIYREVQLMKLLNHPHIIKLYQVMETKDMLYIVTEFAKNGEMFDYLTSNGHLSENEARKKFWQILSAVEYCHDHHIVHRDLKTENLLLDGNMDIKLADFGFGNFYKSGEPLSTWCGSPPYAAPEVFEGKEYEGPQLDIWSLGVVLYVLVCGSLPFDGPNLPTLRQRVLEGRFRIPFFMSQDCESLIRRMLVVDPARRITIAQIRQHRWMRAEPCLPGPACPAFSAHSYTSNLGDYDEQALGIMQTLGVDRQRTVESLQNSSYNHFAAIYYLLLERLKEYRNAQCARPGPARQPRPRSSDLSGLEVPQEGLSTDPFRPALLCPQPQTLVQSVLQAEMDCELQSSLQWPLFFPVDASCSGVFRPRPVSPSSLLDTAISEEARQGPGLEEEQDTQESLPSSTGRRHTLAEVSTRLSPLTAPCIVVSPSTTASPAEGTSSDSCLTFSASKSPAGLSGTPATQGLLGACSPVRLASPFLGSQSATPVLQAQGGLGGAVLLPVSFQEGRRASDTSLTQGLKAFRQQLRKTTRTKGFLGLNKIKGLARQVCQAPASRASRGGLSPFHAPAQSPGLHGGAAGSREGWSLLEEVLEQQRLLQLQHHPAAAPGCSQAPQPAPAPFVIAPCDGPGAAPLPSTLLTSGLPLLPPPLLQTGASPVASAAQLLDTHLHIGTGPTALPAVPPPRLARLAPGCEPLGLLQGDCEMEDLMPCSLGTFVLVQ

| Structure (SMILES) | IC50 (SIK1) [nM] | IC50 (SIK3) [nM] | EC50 [1] [nM] |
| --- | --- | --- | --- |
| COc1cc(-c2cnc3cc(C4(O)CCC4)ccn23)cc(OC(F)F)c1C(=O)NC1CC1 [Cpd 173, N-cyclopropyl-2-(difluoromethoxy)-4-[7-(1-hydroxycyclobutyl)imidazo[1,2-a]pyridin-3-yl]-6-methoxy-benzamide] | > 500 | 10 to 100 | 100 to 1000 |
| COc1cc(-c2cnc3cc(C(C)(C)CO)ccn23)cc(OC(F)F)c1C(=O)NC1CC1 [Cpd 150, N-cyclopropyl-2-(difluoromethoxy)-4-[7-(2-hydroxy-1,1-dimethyl-ethyl)imidazo[1,2-a]pyridin-3-yl]-6-methoxy-benzamide] | > 500 | 0.01 to 10 | 100 to 1000 |
| COc1cc(-c2cnc3cc(C4(C#N)COC4)ccn23)cc(OC(F)F)c1C(=O)N[C@@H]1C[C@@H]1F [Cpd 130, 4-[7-(3-cyanooxetan-3-yl)imidazo[1,2-a]pyridin-3-yl]-2-(difluoromethoxy)-N-[(1R,2S)-2-fluorocyclopropyl]-6-methoxy-benzamide] | > 500 | 0.01 to 10 | 100 to 1000 |
| COc1cc(-c2cnc3cc(C4(O)CCC4)ccn23)cc(OC(F)F)c1C(=O)N[C@@H]1C[C@@H]1F [Cpd 205, 2-(difluoromethoxy)-N-[(1R,2S)-2-fluorocyclopropyl]-4-[7-(1-hydroxycyclobutyl)imidazo[1,2-a]pyridin-3-yl]-6-methoxy-benzamide] | > 500 | 0.01 to 10 | 100 to 1000 |
| COc1cc(-c2cnn3cc(C(C)(C)CN4CCOCC4)ccc23)cc(OC(F)F)c1C(=O)N[C@@H]1C[C@@H]1F [Cpd 269, 2-(difluoromethoxy)-4-[6-(1,1-dimethyl-2-morpholino-ethyl)pyrazolo[1,5-a]pyridin-3-yl]-N-[(1R,2S)-2-fluorocyclopropyl]-6-methoxy-benzamide] | > 500 | 0.01 to 10 | 100 to 1000 |
| COc1cc(-c2cnc3cc([C@@](C)(C#N)CO)ccn23)cc(OC(F)F)c1C(=O)NC1CC1 (single isomer, unassigned) [Cpd 189, 4-[7-(1-cyano-2-hydroxy-1-methyl-ethyl)imidazo[1,2-a]pyridin-3-yl]-N-cyclopropyl-2-(difluoromethoxy)-6-methoxy-benzamide] | > 500 | 10 to 100 | 1000 to 5000 |
| COc1cc(-c2cnc3cc(C(C)(C)O)ccn23)cc(OC(F)F)c1C(=O)NC1CC1 [Cpd 35, N-cyclopropyl-2-(difluoromethoxy)-4-[7-(1-hydroxy-1-methyl-ethyl)imidazo[1,2-a]pyridin-3-yl]-6-methoxy-benzamide] | > 500 | 10 to 100 | 100 to 1000 |
| CCC(C)(O)c1ccn2c(-c3cc(OC)c(C(=O)NC4CC4)c(OC(F)F)c3)cnc2c1 (stereo not drawn) [Cpd 137, N-cyclopropyl-2-(difluoromethoxy)-4-[7-(1-hydroxy-1-methyl-propyl)imidazo[1,2-a]pyridin-3-yl]-6-methoxy-benzamide] | > 500 | 10 to 100 | 100 to 1000 |
| COc1cc(-c2cnc3cc(C4CCCN4C)ccn23)cc(OC(F)F)c1C(=O)NC1CC1 (stereo not drawn) [Cpd 171, N-cyclopropyl-2-(difluoromethoxy)-6-methoxy-4-[7-(1-methylpyrrolidin-2-yl)imidazo[1,2-a]pyridin-3-yl]benzamide] | > 500 | 10 to 100 | 1000 to 5000 |
| COc1cc(-c2cnc3cc(C(C)(O)C4CC4)ccn23)cc(OC(F)F)c1C(=O)NC1CC1 (stereo not drawn) [Cpd 138, N-cyclopropyl-4-[7-(1-cyclopropyl-1-hydroxy-ethyl)imidazo[1,2-a]pyridin-3-yl]-2-(difluoromethoxy)-6-methoxy-benzamide] | > 500 | 10 to 100 | 100 to 1000 |
| CCC(C)(C#N)c1ccn2c(-c3cc(OC)c(C(=O)NC4CC4)c(OC(F)F)c3)cnc2c1 (stereo not drawn) [Cpd 27, 4-[7-(1-cyano-1-methyl-propyl)imidazo[1,2-a]pyridin-3-yl]-N-cyclopropyl-2-(difluoromethoxy)-6-methoxy-benzamide] | > 500 | 10 to 100 | 100 to 1000 |
| COc1cc(-c2cnn3cc(C4(C#N)CCOCC4)ccc23)cc(OC(F)F)c1C(=O)N[C@@H]1C[C@@H]1F [Cpd 243, 4-[6-(4-cyanotetrahydropyran-4-yl)pyrazolo[1,5-a]pyridin-3-yl]-2-(difluoromethoxy)-N-[(1R,2S)-2-fluorocyclopropyl]-6-methoxy-benzamide] | > 500 | 0.01 to 10 | 100 to 1000 |
| COc1cc(-c2cnc3cc(C4COC4)ccn23)cc(OC(F)F)c1C(=O)NC1CC1 [Cpd 174, N-cyclopropyl-2-(difluoromethoxy)-6-methoxy-4-[7-(oxetan-3-yl)imidazo[1,2-a]pyridin-3-yl]benzamide] | 100 to 500 | 0.01 to 10 | 100 to 1000 |
| COc1cc(-c2cnc3cc(C4COCCN4C)ccn23)cc(OC(F)F)c1C(=O)NC1CC1 (stereo not drawn) [Cpd 193, N-cyclopropyl-2-(difluoromethoxy)-6-methoxy-4-[7-(4-methylmorpholin-3-yl)imidazo[1,2-a]pyridin-3-yl]benzamide] | > 500 | 10 to 100 | 1000 to 5000 |
| COc1cc(-c2cnn3cc(C4(O)CCC4)ccc23)cc(OC(F)F)c1C(=O)N[C@@H]1C[C@@H]1F [Cpd 266, 2-(difluoromethoxy)-N-[(1R,2S)-2-fluorocyclopropyl]-4-[6-(1-hydroxycyclobutyl)pyrazolo[1,5-a]pyridin-3-yl]-6-methoxy-benzamide] | > 500 | 0.01 to 10 | 100 to 1000 |
| COc1cc(-c2cnn3cc(C4COC4)ccc23)cc(OC(F)F)c1C(=O)NC1CC1 [Cpd 216, N-cyclopropyl-2-(difluoromethoxy)-6-methoxy-4-[6-(oxetan-3-yl)pyrazolo[1,5-a]pyridin-3-yl]benzamide] | 100 to 500 | 10 to 100 | 100 to 1000 |
| COc1cc(-c2cnn3cc(C(C)(C)C#N)cnc23)cc(OC(F)F)c1C(=O)N[C@@H]1C[C@@H]1F [Cpd 231, 4-[6-(1-cyano-1-methyl-ethyl)pyrazolo[1,5-a]pyrimidin-3-yl]-2-(difluoromethoxy)-N-[(1R,2S)-2-fluorocyclopropyl]-6-methoxy-benzamide] | > 500 | 0.01 to 10 | 100 to 1000 |
| COc1cc(-c2cnn3cc(C4CCOCC4)cnc23)cc(OC(F)F)c1C(=O)NC1CC1 [Cpd 95, N-cyclopropyl-2-(difluoromethoxy)-6-methoxy-4-(6-tetrahydropyran-4-ylpyrazolo[1,5-a]pyrimidin-3-yl)benzamide] | > 500 | 0.01 to 10 | 1000 to 5000 |
| COc1cc(-c2cnc3cc(C(C)N4CCCCC4)ccn23)cc(OC(F)F)c1C(=O)NC1CC1 (stereo not drawn) [Cpd 146, N-cyclopropyl-2-(difluoromethoxy)-6-methoxy-4-[7-[1-(1-piperidyl)ethyl]imidazo[1,2-a]pyridin-3-yl]benzamide] | > 500 | 10 to 100 | 1000 to 5000 |
| COc1cc(-c2cnn3cc(C(C)(C)C#N)ccc23)cc(OC(F)F)c1C(=O)NC1CC1 [Cpd 208, 4-[6-(1-cyano-1-methyl-ethyl)pyrazolo[1,5-a]pyridin-3-yl]-N-cyclopropyl-2-(difluoromethoxy)-6-methoxy-benzamide] | > 500 | 10 to 100 | 100 to 1000 |
